Experimental data: patent publication US20120040953A1, “Compounds for the Treatment of Metabolic Disorders” (PROSIDION LIMITED, priority 2009, published 2012)

System: male C57Bl/6 or male ob/ob mice
Test: Oral glucose tolerance test in mice
Format: in vivo
Settings: dose of 30 mg kg^−1, oral
Method: The effects of compounds of the invention on oral glucose (Glc) tolerance were evaluated in male C57Bl/6 or male ob/ob mice. Food was withdrawn 5 h before administration of Glc and remained withdrawn throughout the study. Mice had free access to water during the study. A cut was made to the animals' tails, then blood (20 μL) was removed for measurement of basal Glc levels 45 min before administration of the Glc load. Then, the mice were weighed and dosed orally with test compound or vehicle (20% aqueous hydroxypropyl-β-cyclodextrin or 25% aqueous Gelucire 44/14) 30 min before the removal of an additional blood sample (20 μL) and treatment with the Glc load (2-5 g kg^−1 p.o.). Blood samples (20 μL) were then taken 25, 50, 80, 120, and 180 min after Glc administration. The 20 μL blood samples for measurement of Glc levels were taken from the cut tip of the tail into disposable micro-pipettes (Dade Diagnostics Inc., Puerto Rico) and the sample added to 480 μL of haemolysis reagent. Duplicate 20 μL aliquots of the diluted haemolysed blood were then added to 180 μL of Trinders glucose reagent (Sigma enzymatic (Trinder) colorimetric method) in a 96-well assay plate. After mixing, the samples were left at room temperature for 30 min before being read against Glc standards (Sigma glucose/urea nitrogen combined standard set).

CC(C)OC(=O)N1CCC(O[C@H](C)c2nc(-c3cnc(N4C[C@H](c5cc(F)ccc5F)[C@@H](N)C4)nc3)no2)CC1.Cc1ccc(S(=O)(=O)O)cc1 [Example 18, 4-[(R)-1-(3-{2-[(3R,4S)-3-Amino-4-(2,5-difluorophenyl)pyrrolidin-1-yl]pyrimidin-5-yl}-[1,2,4]oxadiazol-5-yl)ethoxy]piperidine-1-carboxylic acid isopropyl ester p-toluenesulfonic acid salt]
reduction in the Glc excursion: > 40%
